Six compounds from paper PMC6950245, “Identification and Characterization of ShSPI, a Kazal-Type Elastase Inhibitor from the Venom of Scolopendra Hainanum” (Toxins, 2019) can be followed below.

Molecules are shown by their SMILES. Where a SMILES comes first, the peptide text is derived from it. Bridges are numbered along the chain shown (N, C = ends).

This experiment addresses T1, human neutrophil elastase (HNE) (Homo sapiens, UniProt P08246).
T1 construct: purchased Sigma-Aldrich E8140
T1 sequence (P08246 30-267): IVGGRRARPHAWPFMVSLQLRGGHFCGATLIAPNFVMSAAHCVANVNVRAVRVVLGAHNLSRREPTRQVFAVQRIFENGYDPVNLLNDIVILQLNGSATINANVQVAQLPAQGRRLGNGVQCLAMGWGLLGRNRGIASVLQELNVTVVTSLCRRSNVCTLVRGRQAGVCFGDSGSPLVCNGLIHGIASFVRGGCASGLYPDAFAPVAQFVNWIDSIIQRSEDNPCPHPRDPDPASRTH
In words: Protease inhibition assay, human neutrophil elastase (chromogenic substrate, Dixon method). It counts as biochemical. From the text:
Human neutrophils elastase (HNE, E8140), porcine pancreatic elastase (PPE, E0127), cathepsin G (CG, C4428), human trypsin (T6424), α-chymotrypsin from human pancreas (C8946), and thrombin from human plasma (T4393) were all purchased from Sigma-Aldrich (USA). Factor Xa (FXa, HFXa 1011) and Factor XIIa (FXIIa, HFXIIa 1212a) were from Enzyme Research Laboratories (South Bend, IN, USA). Kallikrein from human plasma (420307) was from Merck Millipore (Billerica, MA, USA).
Substrate for HNE and PPE (MeOSuc-Ala-Ala-Pro-Val-pNA, 324696) was purchased from Merck Millipore (USA). Substrates for CG (Succinyl-Ala-Ala-Pro-Phe-pNA, 573462), trypsin (Nalpha-Benzoyl-L-arginine 4-nitroanilide hydrochloride, B3133), FXa (CH3OCO-D-CHA-Gly-Arg-pNA-AcOH, F3301), chymotrypsin (N-Succinyl-Gly-Gly-Phe-pNA, S1899), thrombin (β-Ala-Gly-Arg-pNA diacetate, T3068), and kallikrein (Z-Phe-Arg 7-amido-4-methylcoumarin hydrochloride, C9521) were purchased from Sigma-Aldrich (USA).
As mentioned in our previous study, experiments for protease inhibitory activity were assayed in buffer (0.05 M Tris-HCl, pH 7.8) at 37 °C. […] At the end of the incubation, the reaction was initiated by the addition of the exclusive substrate solution and monitored by recording the absorbance at 405 nm every 30 s for 30 min. Enzyme activity in each well was calculated based on the initial slope of the reaction curve, and percentage of the initial slope of the uninhibited reaction was expressed. The inhibition constant Ki value was determined according to the Dixon method.
As to `CC[C@H](C)[C@@H]1NC(=O)[C@H](C)NC(=O)[C@@H]2CCCN2C(=O)[C@@H]2CSSC[C@H](NC(=O)[C@H](CO)NC(=O)[C@H](CC(N)=O)NC(=O)[C@H](CO)NC(=O)[C@H](Cc3ccc(O)cc3)NC(=O)[C@H](CCSC)NC(=O)[C@H](CCCNC(=N)N)NC(=O)CNC(=O)[C@H](Cc3ccccc3)NC(=O)[C@H](CCC(=O)O)NC(=O)[C@H](CC(=O)O)NC(=O)[C@H](Cc3ccccc3)NC(=O)[C@H](C(C)C)NC(=O)[C@@H]3CCCN3C(=O)[C@H](CCC(N)=O)NC(=O)[C@H](Cc3ccc(O)cc3)NC1=O)C(=O)N[C@@H](C)C(=O)N[C@@H](CCSC)C(=O)N[C@@H](CCC(N)=O)C(=O)N[C@@H](CCCNC(=N)N)C(=O)N[C@@H](C)C(=O)N[C@@H](CCCNC(=N)N)C(=O)N[C@H](C(=O)N[C@@H](CC(C)C)C(=O)N[C@@H](CCCNC(=N)N)C(=O)NCC(=O)O)CSSC[C@H](N)C(=O)N1CCC[C@H]1C(=O)N[C@@H](CCC(N)=O)C(=O)N[C@@H](C(C)C)C(=O)N2` [E25A] (H-CPQVCPAIYQPVFDEFGRMYSNSCAMQRARCLRG-OH; disulfide 1-31, 5-24), the inhibitory constant (Ki) (usually a measure of affinity in units of concentration, obtained from inhibition or displacement) was greater than 1000 µM. On to `CC[C@H](C)[C@@H]1NC(=O)[C@H](C)NC(=O)[C@@H]2CCCN2C(=O)[C@@H]2CSSC[C@H](NC(=O)[C@H](CO)NC(=O)[C@H](CC(N)=O)NC(=O)[C@H](CO)NC(=O)[C@H](Cc3ccc(O)cc3)NC(=O)[C@H](CCSC)NC(=O)[C@H](CCCNC(=N)N)NC(=O)CNC(=O)[C@H](Cc3ccccc3)NC(=O)[C@H](CCC(=O)O)NC(=O)[C@H](CC(=O)O)NC(=O)[C@H](Cc3ccccc3)NC(=O)[C@H](C(C)C)NC(=O)[C@@H]3CCCN3C(=O)[C@H](CCC(N)=O)NC(=O)[C@H](Cc3ccc(O)cc3)NC1=O)C(=O)N[C@@H](CCC(=O)O)C(=O)N[C@@H](CCSC)C(=O)N[C@@H](CCC(N)=O)C(=O)N[C@@H](CCCNC(=N)N)C(=O)N[C@@H](C)C(=O)N[C@@H](CCCNC(=N)N)C(=O)N[C@H](C(=O)N[C@@H](CC(C)C)C(=O)N[C@@H](CCCNC(=N)N)C(=O)NCC(=O)O)CSSC[C@H](N)C(=O)N[C@@H](C)C(=O)N[C@@H](CCC(N)=O)C(=O)N[C@@H](C(C)C)C(=O)N2` [P2A] (H-CAQVCPAIYQPVFDEFGRMYSNSCEMQRARCLRG-OH; disulfide 1-31, 5-24), for which the inhibition constant (Ki) was determined as 0.101 µM. Consider `CC[C@H](C)[C@@H]1NC(=O)[C@H](C)NC(=O)[C@H](C)NC(=O)[C@@H]2CSSC[C@H](NC(=O)[C@H](CO)NC(=O)[C@H](CC(N)=O)NC(=O)[C@H](CO)NC(=O)[C@H](Cc3ccc(O)cc3)NC(=O)[C@H](CCSC)NC(=O)[C@H](CCCNC(=N)N)NC(=O)CNC(=O)[C@H](Cc3ccccc3)NC(=O)[C@H](CCC(=O)O)NC(=O)[C@H](CC(=O)O)NC(=O)[C@H](Cc3ccccc3)NC(=O)[C@H](C(C)C)NC(=O)[C@@H]3CCCN3C(=O)[C@H](CCC(N)=O)NC(=O)[C@H](Cc3ccc(O)cc3)NC1=O)C(=O)N[C@@H](CCC(=O)O)C(=O)N[C@@H](CCSC)C(=O)N[C@@H](CCC(N)=O)C(=O)N[C@@H](CCCNC(=N)N)C(=O)N[C@@H](C)C(=O)N[C@@H](CCCNC(=N)N)C(=O)N[C@H](C(=O)N[C@@H](CC(C)C)C(=O)N[C@@H](CCCNC(=N)N)C(=O)NCC(=O)O)CSSC[C@H](N)C(=O)N1CCC[C@H]1C(=O)N[C@@H](CCC(N)=O)C(=O)N[C@@H](C(C)C)C(=O)N2` [P6A] (H-CPQVCAAIYQPVFDEFGRMYSNSCEMQRARCLRG-OH; disulfide 1-31, 5-24), for which affinity was put at a Ki of 0.105 µM. Compound `CC[C@H](C)[C@@H]1NC(=O)[C@H](C)NC(=O)[C@@H]2CCCN2C(=O)[C@@H]2CSSC[C@H](NC(=O)[C@H](CO)NC(=O)[C@H](CC(N)=O)NC(=O)[C@H](CO)NC(=O)[C@H](Cc3ccc(O)cc3)NC(=O)[C@H](CCSC)NC(=O)[C@H](CCCNC(=N)N)NC(=O)CNC(=O)[C@H](Cc3ccccc3)NC(=O)[C@H](CCC(=O)O)NC(=O)[C@H](CC(=O)O)NC(=O)[C@H](Cc3ccccc3)NC(=O)[C@H](C(C)C)NC(=O)[C@@H]3CCCN3C(=O)[C@H](CCC(N)=O)NC(=O)[C@H](Cc3ccc(O)cc3)NC1=O)C(=O)N[C@@H](CCC(=O)O)C(=O)N[C@@H](CCSC)C(=O)N[C@@H](CCC(N)=O)C(=O)N[C@@H](CCCNC(=N)N)C(=O)N[C@@H](C)C(=O)N[C@@H](CCCNC(=N)N)C(=O)N[C@H](C(=O)N[C@@H](CC(C)C)C(=O)N[C@@H](CCCNC(=N)N)C(=O)NCC(=O)O)CSSC[C@H](N)C(=O)N1CCC[C@H]1C(=O)N[C@@H](C)C(=O)N[C@@H](C(C)C)C(=O)N2` [Q3A] (H-CPAVCPAIYQPVFDEFGRMYSNSCEMQRARCLRG-OH; disulfide 1-31, 5-24) registered a Ki of 0.114 µM.

In the case of `CC[C@H](C)[C@@H]1NC(=O)[C@H](C)NC(=O)[C@@H]2CCCN2C(=O)[C@@H]2CSSC[C@H](NC(=O)[C@H](CO)NC(=O)[C@H](CC(N)=O)NC(=O)[C@H](CO)NC(=O)[C@H](Cc3ccc(O)cc3)NC(=O)[C@H](CCSC)NC(=O)[C@H](CCCNC(=N)N)NC(=O)CNC(=O)[C@H](Cc3ccccc3)NC(=O)[C@H](CCC(=O)O)NC(=O)[C@H](CC(=O)O)NC(=O)[C@H](Cc3ccccc3)NC(=O)[C@H](C(C)C)NC(=O)[C@@H]3CCCN3C(=O)[C@H](C)NC(=O)[C@H](Cc3ccc(O)cc3)NC1=O)C(=O)N[C@@H](CCC(=O)O)C(=O)N[C@@H](CCSC)C(=O)N[C@@H](CCC(N)=O)C(=O)N[C@@H](CCCNC(=N)N)C(=O)N[C@@H](C)C(=O)N[C@@H](CCCNC(=N)N)C(=O)N[C@H](C(=O)N[C@@H](CC(C)C)C(=O)N[C@@H](CCCNC(=N)N)C(=O)NCC(=O)O)CSSC[C@H](N)C(=O)N1CCC[C@H]1C(=O)N[C@@H](CCC(N)=O)C(=O)N[C@@H](C(C)C)C(=O)N2` [Q10A] (H-CPQVCPAIYAPVFDEFGRMYSNSCEMQRARCLRG-OH; disulfide 1-31, 5-24), the inhibition constant (Ki) turned out to be 0.0136 µM. The figure for `CC[C@H](C)[C@@H]1NC(=O)[C@H](C)NC(=O)[C@@H]2CCCN2C(=O)[C@@H]2CSSC[C@H](NC(=O)[C@H](CO)NC(=O)[C@H](CC(N)=O)NC(=O)[C@H](C)NC(=O)[C@H](Cc3ccc(O)cc3)NC(=O)[C@H](CCSC)NC(=O)[C@H](CCCNC(=N)N)NC(=O)CNC(=O)[C@H](Cc3ccccc3)NC(=O)[C@H](CCC(=O)O)NC(=O)[C@H](CC(=O)O)NC(=O)[C@H](Cc3ccccc3)NC(=O)[C@H](C(C)C)NC(=O)[C@@H]3CCCN3C(=O)[C@H](CCC(N)=O)NC(=O)[C@H](Cc3ccc(O)cc3)NC1=O)C(=O)N[C@@H](CCC(=O)O)C(=O)N[C@@H](CCSC)C(=O)N[C@@H](CCC(N)=O)C(=O)N[C@@H](CCCNC(=N)N)C(=O)N[C@@H](C)C(=O)N[C@@H](CCCNC(=N)N)C(=O)N[C@H](C(=O)N[C@@H](CC(C)C)C(=O)N[C@@H](CCCNC(=N)N)C(=O)NCC(=O)O)CSSC[C@H](N)C(=O)N1CCC[C@H]1C(=O)N[C@@H](CCC(N)=O)C(=O)N[C@@H](C(C)C)C(=O)N2` [S21A] (H-CPQVCPAIYQPVFDEFGRMYANSCEMQRARCLRG-OH; disulfide 1-31, 5-24) is 0.0168 µM.
